{"source": "patent US20090317419A1", "about": "“Tetramers” (Duke University, priority 2008, published 2009)", "key": {"[1]": {"system": "mAb 13H11 (non-neutralizing anti-gp41 MPER)", "settings": "SPR, mAb 13H11 captured", "method": "(§1) Surface Plasmon Resonance (SPR) measurements of tetramer binding to peptide epitopes. Tetramer binding assays were carried out on a BIAcore 3000 (BIAcore/GE Healthcare, Piscataway, N.J.) instrument using mAbs against each specific B cell epitope.\n(§2) Each mAb (about 1000 RU) was first captured on anti-human Fc mAb (Pierce, Rockford, Ill.) immobilized on a CM5 sensor chip. Approximately 3000 RU of anti-human Fc mAb was covalently coupled to each flow cell of the sensor chip as described before (Alam et al, Journal of Immunology 178:4424-4435 (2007)). Each B cell tetramer was injected over its epitope specific mAb or a control surface immobilized with irrelevant mAb. For each tetramer binding curve, non-specific binding signals obtained from the control surface were subtracted. The binding assay was monitored at 25° C. and using PBS, pH 7.4, as the running buffer. The BIAevaluation 3.0 software (BIAcore/GE Healthcare, Piscataway, N.J.) was used for SPR binding data analyses."}, "[2]": {"system": "mAb 2F5 (neutralizing anti-gp41 MPER)", "settings": "SPR, mAb 2F5 captured", "method": "as §1, §2"}, "[3]": {"system": "total naïve splenic BALB/c B cells", "settings": "APC-labeled tetramer", "method": "(§3) Cell isolation, serum collection, and PBMC isolations. Heparinized or non-heparanized blood was collected sub-mandibularly 10 days after immunizations. For preparation of peripheral blood lymphocytes for B cell tetramer analysis, PBMC were isolated from blood collected in heparinized tubes (0.2 ml) using Lympholyte M (Cederlane). For Luminex and ELISA assays, sera was isolated from non-heparanized blood and stored at −20° C. until use. Spleen, bone marrow (BM), and peritoneal cavity (PerC) cells were also collected. For most immunizations, tissues were harvested after the 4th boost, except for kinetic studies, in which tissues from mice were harvested after 1, 3 or 7 days after a single immunization. For BM preparations, femora and tibiae were removed, aspirated with tissue medium using 23 gauge needles, filtered with 70 μm cell strainers (BD labware), and RBC-depleted using Tris-buffered ammonium chloride lysis. For splenocyte preparation, spleens were harvested and dissociated into single-cell suspensions either by passage through 70 μm cell strainers in tissue medium or by using frosted glass slides, and blood erythrocytes were depleted with ammonium chloride lysis. For isolation of peritoneal cells, peritoneal cavities of sacrificed mice were lavaged by injection with 10 ml of PBS, followed by gentle massage of the abdomen, and withdrawal of the peritoneal exudates. BM, splenic, and peritoneal single cell suspensions were centrifuged at 1500 rpm for 5 min and resuspended in 5, 10, and 1 ml of tissue media, respectively, for cell counts and immunofluorescence staining. Cell counts were performed in duplicate on a Coulter ZI Dual Threshold Cell Counter (Coulter).\n(§4) Antibodies and flow cytometry. Immunofluorescent staining of single cell suspensions (≧2×10^6) was conducted using pre-mixed combinations of fluorochrome-labeled antibodies and APC-conjugated B cell tetramers at empirically-determined optimal concentrations. All antibodies were from BD unless otherwise stated. […] Other reagents included biotinylated antibodies against dump channel markers: Thy1 (Ox7; Abcam), F4/80 (BM8; Abcam), CD11c (clone HL3), Gr-1 (clone RB6-8C5), TER-119, and NK-1.1 (clone PK136), secondary staining SA-Texas Red conjugate; v-amine live/dead violet dye (Molecular Probes), and Fc block (anti-CD16/32; clone 2.4G2).\n(§5) Staining was conducted at 4° C. in several sequential steps in FACS staining buffer (1×PBS with 2% FCS, 0.1% NaN3), washing twice between steps. First, cells were incubated with v-amine live/dead dye for 15 min. Next, cells were stained with APC-labeled tetramers for 30 min. Where applicable, this was preceded by addition of cold tetramer at 10 fold molar excess for 1 h. Finally, cells were stained with Fc block for 30 min, followed by incubation with combinations of primary antibody cocktails for 30 min, and secondary staining with SA-Texas Red for 30 min.\n(§6) Data were acquired using an LSRII flow cytometer and Cell Quest software (BD Immunocytometry systems). A minimum of 250000 events were acquired per sample. FACS Analysis was performed using FlowJo software (Tree Star). For analysis, single cells were positively gated based on their forward scatter height vs. forward scatter area and side scatter height vs. side scatter area profiles, lymphocytes were then positively gated based on their forward and side scatter profile (live lymphocyte gate), residual dead cells were excluded with negative gating on v-amine live/dead dye, and all irrelevant non-B cells were excluded with negative gating on dump markers Thy1, F4/80, CD11c, Gr-1, TER-119, and NK-1.1."}, "[4]": {"system": "total naïve splenic C57BL/6 B cells", "settings": "C57BL/6, APC-labeled tetramer", "method": "as §3, §4, §5, §6"}, "[5]": {"system": "B220+ BALB/c splenocytes", "settings": "pre-incubation with 10-fold molar excess unlabeled tetramer, 30 min on ice", "method": "as §5"}, "[6]": {"system": "naïve splenic B cells, BALB/c congenic strain bearing the IgH^b allotype", "method": "(§7) Mice. Female C57BL/6, BALB/c, B6Igh^a, and CB17 (BALBc Igh^b) inbred mouse strains (8-12 weeks of age) were purchased from Charles River Laboratories. All mice were housed in the Duke University Animal Facility in a pathogen-free environment with 12 hour light/dark cycles at 20-25° C. under AALAC guidelines and in accordance with all Institutional Animal Care and Use Committee and Duke University Institutional Biosafety Committee-approved animal protocols.\nas §4\n(§8) Staining was conducted at 4° C. in several sequential steps in FACS staining buffer (1×PBS with 2% FCS, 0.1% NaN3), washing twice between steps. First, cells were incubated with v-amine live/dead dye for 15 min. Next, cells were stained with APC-labeled tetramers for 30 min. […]"}, "[7]": {"system": "naïve splenic B cells, C57BL/6 congenic strain bearing the IgH^a allotype", "method": "as §7, §4, §8"}, "[8]": {"system": "B cell subsets from naive C57BL/6 mice", "method": "as §3, §4, §5, §6\nTo examine if gp41 2F5 MPER epitope reactivity across B cell subsets mapped similarly on the IgH^b allotype, reactivity to gp41 2F5 MPER tetramers was measured by measuring the percentage of APC-labeled gp41 2F5 MPER tetramer-reactive cells in C57BL/6 bone marrow, splenic, and peritoneal B cell subsets (Table 10)."}, "[9]": {"system": "B Cell Receptor of purified naïve BALB/c splenic B cells", "settings": "10 μg/ml anti-Ig, 37° C., by 15 min", "procedure": "B cell purification, BCR internalization assay, and microscopy of BCR cap formation. Splenic B cells were purified by negative depletion of CD43-expressing non B cells with anti-mouse CD43 MACS beads (Miltenyi Biotechnology) resulting in fractions >90% B cells.\nFor analysis of BCR internalization by flow cytometry, purified B cells were pre-incubated on ice for 30 min with either a 95:5 unlabeled/R-PE-labeled mixture of 10 μg/ml goat anti-mouse-IgM+IgG (H+L) F(ab)2 fragments (Jackson ImmunoResearch laboratories). To remove excess reagent, cells were then washed, resuspended in DMEM 10% FCS, and stimulated by warming to 37° C. (or at 4° C. as a control) for the indicated time points. […] Percent internalization for tetramers was calculated on gp41 MPER+B220+ subsets (the gp41 MPER gate set based on the FMO control) by the formula [% gp41 MPER (To)−% gp41 MPER (Tn)]/% Sp62 (To)×100. In other experiments, cells were pre-incubated with either 5 mg/ml mannan, 125 mM α-methyl-mannopyranoside (Sigma-Aldrich), or 10 μg/ml unlabeled goat anti-mouse-IgM+IgG (H+L) F(ab)2 fragments, prior to staining with APC-labeled tetramers."}}, "note": "Like-named read-outs stand apart in the source and are kept apart here. Marks after values point to notes of the source that are not given here. Ends that are not written are not given here. * marks the point of attachment. Biotin = O=C1N[C@H]2[C@H](CS[C@H]2CCCCC(=O)*)N1", "data": [{"substance": "Biotin-GGGQQEKNEQELLELDKWASLWN [gp41 MPER tetramer]", "values": [{"measurement": "koff", "setting": "[1]", "value": 8.1, "unit": "s^−1 × 10^−3"}, {"measurement": "kon", "setting": "[1]", "value": 206, "unit": "M^−1s^−1 × 10^3"}, {"measurement": "koff", "setting": "[2]", "value": 0.37, "unit": "s^−1 × 10^−3"}, {"measurement": "kon", "setting": "[2]", "value": 174, "unit": "M^−1s^−1 × 10^3"}, {"measurement": "fraction of total naïve splenic B cell repertoire binding tetramer", "setting": "[3]", "value": "> 5", "unit": "%"}, {"measurement": "fraction of total naïve splenic B cell repertoire binding tetramer", "setting": "[4]", "value": "< 0.3", "unit": "%"}, {"measurement": "inhibition of binding of APC-labeled gp41 MPER-tetramer", "setting": "[5]", "value": "> 90", "unit": "%"}, {"measurement": "tetramer binding to splenic B cells", "setting": "[6]", "value": "completely loses gp41 2F5 MPER binding"}, {"measurement": "tetramer binding to splenic B cells", "setting": "[7]", "value": "restores gp41 2F5 MPER binding"}, {"measurement": "% of subset binding tetramer ± SEM", "setting": "[8]; C57BL/6, Bone marrow, Immature", "value": "0.30 ± 0.04", "unit": "%"}, {"measurement": "% of subset binding tetramer ± SEM", "setting": "[8]; C57BL/6, Bone marrow, MF", "value": "0.15 ± 0.06", "unit": "%"}, {"measurement": "% of subset binding tetramer ± SEM", "setting": "[8]; C57BL/6, Bone marrow, Pro/pre", "value": "0.05 ± 0.01", "unit": "%"}, {"measurement": "% of subset binding tetramer ± SEM", "setting": "[8]; C57BL/6, Bone marrow, T1", "value": "0.62 ± 0.10^d %"}, {"measurement": "% of subset binding tetramer ± SEM", "setting": "[8]; C57BL/6, Bone marrow, T2", "value": "0.54 ± 0.09^d %"}, {"measurement": "% of subset binding tetramer ± SEM", "setting": "[8]; C57BL/6, Peritoneum, B1a", "value": "0.52 ± 0.08", "unit": "%"}, {"measurement": "% of subset binding tetramer ± SEM", "setting": "[8]; C57BL/6, Peritoneum, B1b", "value": "0.50 ± 0.13", "unit": "%"}, {"measurement": "% of subset binding tetramer ± SEM", "setting": "[8]; C57BL/6, Peritoneum, B2", "value": "0.32 ± 0.09", "unit": "%"}, {"measurement": "% of subset binding tetramer ± SEM", "setting": "[8]; C57BL/6, Spleen, MF", "value": "0.16 ± 0.02", "unit": "%"}, {"measurement": "% of subset binding tetramer ± SEM", "setting": "[8]; C57BL/6, Spleen, MZ", "value": "0.25 ± 0.04", "unit": "%"}, {"measurement": "% of subset binding tetramer ± SEM", "setting": "[8]; C57BL/6, Spleen, T1", "value": "0.24 ± 0.06", "unit": "%"}, {"measurement": "% of subset binding tetramer ± SEM", "setting": "[8]; C57BL/6, Spleen, T2", "value": "0.21 ± 0.07", "unit": "%"}, {"measurement": "tetramer downmodulation", "setting": "[9]", "value": "> 80", "unit": "%"}]}]}
